The text below walks through data of patent publication US20080124404A1 (priority 2006, published 2008).

Entries after “also recorded” stand apart in the source; their conditions may differ.

The test system of series [1] is LDLR mRNA. Kind of series: Hepatic LDLR mRNA expression in HFHC-fed hamsters (quantitative real-time RT-PCR). In kind it is in vivo, Golden Syrian hamsters. Particulars: BBR 1.8 mg/d, end of 24-day treatment, n=6, p<0.0001. For orientation: In qPCR the cycle at which signal appears reflects the starting amount.
The test system of series [2] is LDLR mRNA. Kind of series: Real-time quantitative RT-PCR of LDLR mRNA expression in HepG2 cells. Type of series: cell-based, human. Particulars: HepG2, 8 h.
Series [3] deals with LDLR mRNA. Kind of series: LDLR mRNA stability under actinomycin D in HepG2 cells (real-time RT-PCR). Type of series: cell-based, human. Particulars: HepG2, actinomycin D 5 μg/ml 30 min before, BBR or CND 15 μg/ml, 4 h.
A short description of series [4]: Body weight, food intake and adverse effects in HFHC-fed hamsters. Particulars: 24 day treatment, control animals increased by 10%. In kind it is in vivo, Golden Syrian hamsters. As for the experimental part: . The body weight of hamsters under a HFHC diet in untreated and drug-treated animals at indicated doses were monitored on alternate days (FIG. 11, Panel A). The food intake within 24 h period were measured 2-3 times a week throughout the entire experiment (FIG. 11, Panel B). The data are means±S.D. of 3 cages per group.
Goldenseal in vivo studies. 42 male Golden Syrian hamsters at 6-8 weeks of age were purchased from the Charles River Laboratories and were housed in cages (3 animals/cage) in an air-conditioned room with a 12 h light cycle. Animals had free access to autoclaved water and food. After one week on a regular rodent chow diet, 36 hamsters were switched to a rodent HFHC diet containing 1.25% cholesterol and 2.2% fat (Product # D12108, Research Diet, Inc., New Brunswick, N.J.) and 6 hamsters were fed a control normal diet containing 0.37% fat and no cholesterol (Product # D12102, Research Diet, Inc.). […]. Berberine Chloride was dissolved in the same vehicle solution. Four hours after the last drug treatment, all animals were sacrificed. Blood samples were collected through cardiac puncture and were analyzed for liver function, kidney function, and blood chemistry at DEXX Laboratories (Palo Alto, Calif.). […] After staining, tissue sections were evaluated by a veterinary pathologist and an experienced scientist independently. […]

The conditions of series [5]: 32 hypercholesterolemic patients, oral, 1 g daily, 3 months; cited from earlier work.
Series [6] concerns LDLR mRNA. Kind of series: Northern blot analysis of LDLR mRNA expression in HepG2 cells. Particulars: each alkaloid 20 μg/ml, 8 h. Type of series: cell-based, human. As for the experimental part: . The membrane was stripped and hybridized to a human GAPDH probe. The figure shown is representative of 3 separate studies.
FIG. 2 illustrates the comparison of dose-dependent effects of CND and BBR on LDLR mRNA expression. HepG2 cells were treated with CND or BBR for 8 h at the indicated concentrations and total RNA was isolated for analysis of LDLR mRNA and GAPDH mRNA expression by northern blot (FIG. 2, Panel A) and real-time PCR assays (FIG. 2, Panel B).
(§1) Quantitation of LDLR mRNA expression by northern blot analysis and real-time PCR. Isolation of total RNA and analysis of LDLR and GAPDH mRNA by northern blot were performed as previously described (Liu, J et al. J. Lipid Res. 1997, 38: 2035-2048). Differences in hybridization signals of northern blots were quantitated by a PhosphoImager. For quantitative real-time PCR assays, the reverse transcription was conducted with random primers using M-MLV (Promega) at 37° C. for 1 h in a volume of 25 u.1 containing 1 μg of total RNA. Real-time PCR was performed on the cDNA using ABI Prism 7900-HT Sequence Detection System and Universal MasterMix. The human and hamster LDLR and GAPDH Pre-Developed TaqMan Assay Reagents (Applied Biosystems) were used to assess the mRNA expressions in HepG2 and in hamster livers. The MDR1 mRNA expression in HepG2 cells was assayed similarly using the Pre-Developed probes from Applied Biosystems.
. HPLC/UV-DAD spectroscopic comparisons with standard solutions were used to confirm the presence of BBR, CND, HDT, and HDTN, as well as the absence of PMT. Concentrations of CND and HDT in sample extracts were determined using a single-point calibration and concentrations of BBR in sample extracts were calculated using a standard curve. The identities of BBR, CND, and HDT in extracts were verified further by LC-MS analysis. […]. […]. The results of northern blots were independently confirmed by real-time quantitative RT-PCR (FIG. 1C). […]. […].

Series [7] is described as follows: Measurement of hepatic cholesterol and TG in HFHC-fed hamsters. Particulars: BBR 1.8 mg/animal/d.
Series [8] deals with HepG2 cells. Kind of series: BBR uptake assay, intracellular fluorescence by FACS in HepG2 cells. Particulars: HepG2, 5 min incubation, BBR 15 μg/ml. A general note: A flow cytometer gives signals particle by particle.
The test system of series [9] is ERK. Kind of series: Western blot of phosphorylated ERK in HepG2 cells. In kind it is cell-based, human. Particulars: HepG2, BBR, HDT or CND 20 μg/ml, 2 h. In general terms: A western blot detects proteins with antibodies after separation by electrophoresis.
Series [10] has as its system DNA. Particulars: cited from earlier work.
The test system of series [11] is ERK. Kind of series: Western blot of phosphorylated ERK in hamster liver. Type of series: in vivo, Golden Syrian hamsters. Particulars: pooled liver samples per treatment group (n=9), HFHC hamsters.
Series [12] deals with MDR1 transporter (pgp-170) (Homo sapiens, UniProt P08183).
Chain of MDR1 transporter (pgp-170) (P08183 whole entry): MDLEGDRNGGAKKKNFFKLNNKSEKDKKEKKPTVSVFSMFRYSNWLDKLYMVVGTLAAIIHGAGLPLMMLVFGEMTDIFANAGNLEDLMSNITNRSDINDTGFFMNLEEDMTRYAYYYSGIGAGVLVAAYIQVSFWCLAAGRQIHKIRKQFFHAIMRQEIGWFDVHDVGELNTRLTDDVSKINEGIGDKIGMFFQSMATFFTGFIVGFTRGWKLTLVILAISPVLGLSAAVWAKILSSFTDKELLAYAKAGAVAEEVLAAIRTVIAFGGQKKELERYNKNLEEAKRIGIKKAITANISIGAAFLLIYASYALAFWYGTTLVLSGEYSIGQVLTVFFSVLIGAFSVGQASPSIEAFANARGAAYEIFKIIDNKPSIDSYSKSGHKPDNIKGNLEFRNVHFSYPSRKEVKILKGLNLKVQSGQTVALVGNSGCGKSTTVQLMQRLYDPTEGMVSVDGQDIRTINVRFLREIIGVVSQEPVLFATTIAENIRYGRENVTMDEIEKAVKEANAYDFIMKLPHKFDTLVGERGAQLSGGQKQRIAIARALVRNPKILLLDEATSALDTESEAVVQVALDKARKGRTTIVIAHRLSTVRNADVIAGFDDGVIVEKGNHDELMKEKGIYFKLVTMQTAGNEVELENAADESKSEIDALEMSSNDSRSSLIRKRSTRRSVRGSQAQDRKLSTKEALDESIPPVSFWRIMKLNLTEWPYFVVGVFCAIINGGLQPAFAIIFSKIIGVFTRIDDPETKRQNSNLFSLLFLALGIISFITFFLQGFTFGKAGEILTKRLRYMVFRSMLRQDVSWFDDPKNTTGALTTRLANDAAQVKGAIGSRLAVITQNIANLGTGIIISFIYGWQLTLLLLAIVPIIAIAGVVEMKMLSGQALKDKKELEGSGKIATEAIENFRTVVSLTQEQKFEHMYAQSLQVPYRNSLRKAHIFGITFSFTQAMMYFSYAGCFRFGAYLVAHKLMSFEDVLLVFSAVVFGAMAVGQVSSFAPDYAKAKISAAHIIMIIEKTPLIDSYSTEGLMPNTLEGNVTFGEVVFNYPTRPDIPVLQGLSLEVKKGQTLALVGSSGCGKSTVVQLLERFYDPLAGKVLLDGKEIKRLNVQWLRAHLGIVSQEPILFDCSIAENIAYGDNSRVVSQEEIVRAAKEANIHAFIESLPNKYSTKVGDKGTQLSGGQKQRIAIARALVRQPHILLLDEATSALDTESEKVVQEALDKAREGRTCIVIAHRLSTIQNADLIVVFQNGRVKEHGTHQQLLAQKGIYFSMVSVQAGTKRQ
For series [13], the system named is LDLR promoter. Kind of series: LDLR promoter dual luciferase reporter assay (pLDLR234Luc) in HepG2 cells. Type of series: cell-based, human. Particulars: 8 h. As for the experimental part: FIG. 1E: Analysis of LDLR promoter activity: HepG2 cells were cotransfected with pLDLR234Luc and a normalizing vector pRL-SV40. […] Firefly luciferase and renilla luciferase activities were measured. The data represent normalized LDLR promoter activity.
Transient transfection and dual luciferase reporter assays. HepG2 cells were transfected with plasmid DNA (100 ng/well) by using FuGENE 6 transfection reagent. The DNA ratio of pLDLR234Luc (Li, C et al. J. Biol. Chem. 1999, 274: 6747-6753) to renilla luciferase reporter pRL-SV40 was 90:10. Twenty h after transfection, medium was changed to 0.5% FBS and drugs were added for 8 h prior to cell lysis. The luciferase activity in cell lysate was measured using Dual Luciferase Assay System obtained from Promega. Triplicate wells were assayed for each transfection condition.

For series [14], the system named is liver cells. Kind of series: Cell survival by MTT (Cell Proliferation Kit I). In kind it is cell-based. Particulars: different concentrations, 18 h. As for the experimental part: The toxicity of CND and BBR were compared using a cell-based assay. Cell survival rate under drug treatments were determined by Cell Proliferation Kit I (MTT) obtained from Roche Applied Sciences (Indianapolis, Ind.). Cells were seeded in 96-well plates at a density of 5×10^3 cells/well/ in 100 μl medium supplemented with 10% FBS at 37° C. and 5% CO2. After 24 h, cells were incubated with fresh medium containing different concentrations of BBR or CND for 18 h. At the end of drug treatment, 10 μl of MTT labeling reagent per well was added to cells to reach a concentration of 0.5 mg/ml. After a 4 h-reaction, 100 μl of solubilization solution was added to each well and the plate was incubated at 37° C. overnight. The sample spectraphotometrical absorbance was measured by a microplate reader at the wavelength of 550 nm. The reading of sample without drug treatment was defined as 100% survival and readings from drug-treated samples were plotted relative to that value. Quadruple wells were used in each culture condition.

In series [15] the test system is LDLR mRNA. Kind of series: LDLR mRNA expression with MDR1 blocked by verapamil or MDR1 siRNA in HepG2 cells (real-time PCR). In kind it is cell-based, human. The procedure:
as §1, with “Isolation of total RNA and analysis of LDLR and GAPDH mRNA by northern blot were performed as previously described (Liu, J et al. J. Lipid Res. 1997, 38: 2035-2048).” left out
Small interference RNA (siRNA) transfection.

Series [16] has as its target MDR1 (Homo sapiens, UniProt P08183). Kind of series: MDR direct dye efflux assay with DiOC2(3) in HepG2 cells. Particulars: HepG2, co-incubation 2 h, CND 15 μg/ml. The procedure:
MDR direct dye efflux assay. The MDR Direct Dye Efflux Assay kit (Cat. No. ECM910, Chemicon International Inc., Temecula, Calif.) was used to measure MDR1 activity. HepG2 cells seeded in 6-well culture plates were incubated in efflux buffer (RPMI+2% BSA) and 1 μg/ml of DiOC2(3) in the absence of presence of tested compounds at 37° C. for 2 h.

Chain of MDR1 (P08183 whole entry): as above

Take `COc1ccc2cc3[n+](cc2c1OC)CCc1cc2c(cc1-3)OCO2` [BBR, berberine]: the “increase in hepatic LDLR mRNA expression” value in series [1] was 3.7 fold. Moreover, in series [2] (BBR 20 μg/ml), the “increase in LDLR mRNA expression” value amounted to 3 fold. The “LDLR mRNA increase compared to control under transcriptional suppression” value in series [3] is given as about 2.5 fold. In addition, in [4], the body weights entry was “unchanged”. Further, in series [5], the “reduction of LDL-c” value was 25%, the “reduction of plasma total cholesterol (TC)” value was 29%, the “reduction of triglyceride (TG)” value is 35% and the side effects entry was “without side effects”. Moreover, in [6], the “LDLR mRNA expression (northern blot)” value is on record as “strong inducers”. For the same molecule, in series [7], the “hepatic TC, % of control” value was 68.7 % of control and the “hepatic TG, % of control” value is listed as 78.3 % of control. In series [8], the “increase of intracellular fluorescent intensity” value is given as about 2 fold. For the same molecule, in [9], the ERK phosphorylation entry was “attributable to CND and BBR”. The DNA binding result in series [10] was “strong DNA binding affinities”. In series [11], the “levels of phosphorylated ERK in liver” value was “greatly elevated”. In addition, in series [12] (human, 2 h, 15 μg/ml), the “increase in BBR uptake in MDR1 siRNA transfected cells compared to mock transfected cells” value is recorded as 49% and the “increase in fluorescent intensity on blocking MDR1 activity with VRMP” value worked out at 49%.

As to `COc1ccc2c(c1OC)CN1CCc3cc4c(cc3[C@H]1C2)OCO4` [CND, canadine], the LDLR promoter activity result in series [13] (HepG2, BBR or CND 15 μg/ml) was “not affected at all”. In [2] (similar concentration ranges, northern blot and real-time RT-PCR), the “dose-dependent effect on LDLR mRNA expression, CND compared with BBR” value is reported as “greater activity than BBR; also recorded: more potent inducer of LDLR expression”. For the same molecule, in [3], the “LDLR mRNA increase compared to control under transcriptional suppression” value was about 2.5 fold. In series [14], the “toxicity to liver cells (cell survival, MTT), CND compared with BBR” value was “less toxic to liver cells than berberine (BBR)”. Also, the “LDLR mRNA expression (northern blot)” value in series [6] is listed as “strong inducers”. In addition, the “fold increase in activity on LDLR mRNA in the presence of VRMP vs absence” value in series [15] (HepG2, 0.6 μM VRMP, 8 h, 3 separate experiments, mean±S.D.) came to 0.82±0.34 fold. The “effect of MDR1 siRNA transfection on activity in elevation of LDLR mRNA level” value in series [15] (HepG2, siRNA 3 days, drug 6 h) is reported as “not affected”. Further, in series [16], the “efflux of DiOC2(3)” value is reported as “no inhibitory effect”. In addition, in series [9], the ERK phosphorylation entry is “attributable to CND and BBR”. Moreover, the DNA binding result in series [10] is given as “does not bind to DNA”. Besides, the MDR1 substrate status entry in series [12] (inferred from lack of VRMP effect on activity in HepG2) is on record as “not a substrate of MDR1”.

As for `COc1ccc2c(c1OC)C(=O)O[C@@H]2[C@H]1c2cc3c(cc2CCN1C)OCO3` [HDT, β-hydrastine], the “LDLR mRNA expression (northern blot)” value in series [6] is recorded as “no effects”.

For `CN1CCc2cc3c(cc2C1O)OCO3` (stereo not shown) [HDTN, hydrastinine], in series [6], the “LDLR mRNA expression (northern blot)” value was “no effects”.

For the molecule `COc1cc2c(cc1OC)-c1cc3ccc(OC)c(OC)c3c[n+]1CC2` [PMT, palmatine], in series [6], the “LDLR mRNA expression (northern blot)” value is recorded as “no regulatory activity on LDLR expression; also recorded: no effects”. Further, in series [10], the DNA binding result was “strong DNA binding affinities”.

On to `COc1ccc(CCN(C)CCCC(C#N)(c2ccc(OC)c(OC)c2)C(C)C)cc1OC` (stereo not shown) [VRMP, verapamil], for which the “effect of VRMP itself on the LDLR mRNA level” value in series [15] is “little effect”.

B1: OM: cytokine oncostatin M, known activator of the LDLR promoter (protein, UniProt P13725 26-221, looked up)
Oncostatin-M: AAIGSCSKEYRVLLGQLQKQTDLMQDTSRLLDPYIRIQGLDVPKLREHCRERPGAFPSEETLRGLGRRGFLQTLNATLGCVLHRLADLEQRLPKAQDLERSGLNIEDLEKLQMARPNILGLRNNIYCMAQLLDNSDTAEPTKAGRGASQPPTPTPASDAFQRKLEGCRFLHGYHRFMHSVGRVFSKWGESPNRSRR
Consider B1, for which the LDLR promoter activity entry in series [13] (HepG2, OM 50 ng/ml) is recorded as “strongly elevated”.
